ChEMBL document CHEMBL5608215, “Development of amphipathic derivatives of thymol and carvacrol as potent broad-spectrum antibacterial agents” (Eur J Med Chem, 2024)
Values after ≈ are worked out from the molar mass of the structure shown. Active and inactive are the calls of the source. The calls are words filed in the database; no cut-off is given here.

How the values were obtained:
Enterococcus faecalis = assay: Antibacterial activity against Enterococcus faecalis ATCC29212 by CLSI based serial dilution method; type: functional
Enterococcus = assay: Antibacterial activity against vancomycin-resistant Enterococcus ATCC51299 by CLSI based serial dilution method; type: functional
Pseudomonas aeruginosa [1] = assay: Antibacterial activity against Pseudomonas aeruginosa ATCC27853 by CLSI based serial dilution method; type: functional
Staphylococcus aureus [2] = assay: Antibacterial activity against Staphylococcus aureus ATCC29213 infected in mouse model assessed as normalization of skin cell morphology at 5 mg/kg, sc measured after 24 hrs by H and E staining based analysis; type: functional, organism-based
Escherichia coli [3] = assay: Antibacterial activity against Escherichia coli ATCC25922 by CLSI based serial dilution method; type: functional
Staphylococcus aureus [4] = assay: Antibacterial activity against Staphylococcus aureus ATCC29213 infected in mouse model assessed as reduction in inflammatory factors in skin at 5 mg/kg, sc measured after 24 hrs by H and E staining based analysis; type: functional, organism-based
Staphylococcus aureus [5] = assay: Antibacterial activity against Staphylococcus aureus ATCC29213 infected in mouse model assessed as bacterial load in abscesses at 5 mg/kg, sc measured after 24 hrs; type: functional
Staphylococcus aureus [6] = assay: Bactericidal activity against Staphylococcus aureus ATCC29213 incubated upto 24 hrs by time-kill assay; type: functional, organism-based
Escherichia coli [7] = assay: Bactericidal activity against Escherichia coli ATCC25922 incubated upto 24 hrs by time-kill assay; type: functional, organism-based
Staphylococcus aureus [8] = assay: Antibacterial activity against Staphylococcus aureus ATCC29213 by CLSI based serial dilution method; type: functional
Staphylococcus aureus [9] = assay: Antibacterial activity against methicillin-resistant Staphylococcus aureus 21-5 by CLSI based serial dilution method; type: functional
Staphylococcus aureus [10] = assay: Bactericidal activity against Staphylococcus aureus ATCC29213 at MIC incubated for 24 hrs by time-kill assay; type: functional, organism-based
Staphylococcus aureus [11] = assay: Bactericidal activity against Staphylococcus aureus ATCC29213 assessed as log reduction in bacterial growth at 8 times MIC incubated for 24 hrs by time-kill assay; type: functional
Pseudomonas aeruginosa [12] = assay: Anti-biofilm activity against Pseudomonas aeruginosa ATCC27853 assessed as biofilm formation rate at 8 times MIC incubated for 48 hrs by crystal violet staining based analysis relative to control; type: functional
Staphylococcus aureus [13] = assay: Inhibition of antibiotic-resistance in Staphylococcus aureus ATCC29213 at 0.5 times of MIC incubated for 20 days; type: functional; details: time 20.0 day
Escherichia coli [14] = assay: Bactericidal activity against Escherichia coli ATCC25922 at MIC incubated for 24 hrs by time-kill assay; type: functional, organism-based
Staphylococcus aureus [15] = assay: Bactericidal activity against Staphylococcus aureus ATCC29213 at 8 times MIC incubated for 24 hrs by time-kill assay relative to control; type: functional
Escherichia coli [16] = assay: Bactericidal activity against Escherichia coli ATCC25922 at 8 times MIC incubated for 12 hrs by time-kill assay relative to control; type: functional
Escherichia coli [17] = assay: Bactericidal activity against Escherichia coli ATCC25922 assessed as inhibition of bacterial regrowth at 8 times MIC incubated for 24 hrs by time-kill assay; type: functional, organism-based

Structure (SMILES) | MIC (Enterococcus faecalis) [µg/mL] | MIC (Enterococcus) [µg/mL] | MIC (Pseudomonas aeruginosa [1]) [µg/mL] | MIC (Escherichia coli [3]) [µg/mL] | MIC (Staphylococcus aureus [8]) [µg/mL] | MIC (Staphylococcus aureus [9]) [µg/mL] | further results
CN[C@H](CC(C)C)C(=O)N[C@H]1C(=O)N[C@@H](CC(N)=O)C(=O)N[C@H]2C(=O)N[C@H]3C(=O)N[C@H](C(=O)N[C@H](C(=O)O)c4cc(O)cc(O)c4-c4cc3ccc4O)[C@H](O)c3ccc(c(Cl)c3)Oc3cc2cc(c3O[C@@H]2O[C@H](CO)[C@@H](O)[C@H](O)[C@H]2O[C@H]2C[C@](C)(N)[C@H](O)[C@H](C)O2)Oc2ccc(cc2Cl)[C@H]1O [VANCOMYCIN] | 2 (≈ 1.38 µM) | > 128 | > 128 | 128 (≈ 88.3 µM) |  |  | Activity (Staphylococcus aureus [2]): Active; Activity (Staphylococcus aureus [4]): Active; Activity (Staphylococcus aureus [5]): 3.2 log10CFU/g
CCCCCCN(CCCCCC)C(=O)C[N+](C)(C)CCCCOc1cc(C(C)C)ccc1C.[Br-] | 0.125 | 0.5 | 8 | 4 | 0.5 | 8 | Activity (Staphylococcus aureus [6]): Dose-Dependent Effect; Activity (Escherichia coli [7]): Dose-Dependent Effect; Activity (Staphylococcus aureus [10]): inactive; Activity (Staphylococcus aureus [11]): >3 log10CFU/ml; Activity (Pseudomonas aeruginosa [12]): 55.3%; inhibition (Staphylococcus aureus [13]): Active; Activity (Escherichia coli [14]): inactive; Activity (Staphylococcus aureus [15]): >99.9%; Activity (Escherichia coli [16]): 100%; inhibition (Escherichia coli [17]): Active
CCCCCCN(CCCCCC)C(=O)C[N+](C)(C)CCCCCOc1cc(C(C)C)ccc1C.[Br-] | 1 | 1 | 16 | 8 | 1 | 16 | 
CCCNC(=O)C[N+](C)(C)CCCCCOc1cc(C)ccc1C(C)C.[Br-] | 64 | 128 | > 128 | 128 | 32 | 32 | 
CCCCCCNC(=O)C[N+](C)(C)CCCCCOc1cc(C)ccc1C(C)C.[Br-] | 2 | 4 | 32 | 8 | 2 | 2 | 
CCCCNC(=O)C[N+](C)(C)CCCOc1cc(C(C)C)ccc1C.[Br-] | 32 | 64 | > 128 | 64 | 32 | 64 | 
Cc1ccc(C(C)C)cc1OCCCC[N+](C)(C)CC(=O)N(CC(C)C)CC(C)C.[Br-] | 8 | 8 | > 128 | 64 | 4 | 4 | 
Cc1ccc(C(C)C)c(OCCCC[N+](C)(C)CC(=O)N(C(C)C)C(C)C)c1.[Br-] | 16 | 32 | > 128 | 128 | 8 | 16 | 
Cc1ccc(C(C)C)c(OCCC[N+](C)(C)CC(=O)N(C(C)C)C(C)C)c1.[Br-] | 16 | 32 | > 128 | 128 | 16 | 16 | 
CCCCCCNC(=O)C[N+](C)(C)CCCCOc1cc(C)ccc1C(C)C.[Br-] | 4 | 8 | 64 | 16 | 2 | 1 | 
CCCN(CCC)C(=O)C[N+](C)(C)CCCOc1cc(C)ccc1C(C)C.[Br-] | 32 | 128 | > 128 | 128 | 16 | 16 | 
CCCNC(=O)C[N+](C)(C)CCCOc1cc(C(C)C)ccc1C.[Br-] | 128 | > 128 | > 128 | > 128 | 128 | > 128 | 
CCn1cc(C(=O)O)c(=O)c2cc(F)c(N3CCNCC3)cc21 |  |  |  |  |  |  | inhibition (Staphylococcus aureus [13]): inactive
Cc1ccc(C(C)C)c(OCCCCC[N+](C)(C)CC(=O)N(C(C)C)C(C)C)c1.[Br-] | 8 | 16 | > 128 | 64 | 4 | 2 | 
CCCNC(=O)C[N+](C)(C)CCCCCOc1cc(C(C)C)ccc1C.[Br-] | 64 | 128 | > 128 | 128 | 32 | 128 | 
Cc1ccc(C(C)C)cc1OCCC[N+](C)(C)CC(=O)N1CCSCC1.[Br-] | 64 | > 128 | > 128 | 128 | 64 | 128 | 

Structure (SMILES) | MIC (Enterococcus faecalis) [µg/mL] | MIC (Enterococcus) [µg/mL] | MIC (Pseudomonas aeruginosa [1]) [µg/mL] | MIC (Escherichia coli [3]) [µg/mL] | MIC (Staphylococcus aureus [8]) [µg/mL] | MIC (Staphylococcus aureus [9]) [µg/mL] | further results
CCCCCCCNC(=O)C[N+](C)(C)CCCOc1cc(C(C)C)ccc1C.[Br-] | 2 | 4 | 16 | 8 | 2 | 16 | 
CCCNC(=O)C[N+](C)(C)CCCCOc1cc(C)ccc1C(C)C.[Br-] | 128 | > 128 | > 128 | > 128 | 64 | 128 | 
CC1(C)S[C@@H]2[C@H](NC(=O)[C@H](N)c3ccccc3)C(=O)N2[C@H]1C(=O)O [AMPICILLIN] | 0.5 (≈ 1.43 µM) | 16 (≈ 45.8 µM) | > 128 | 4 (≈ 11.4 µM) | 0.5 (≈ 1.43 µM) | 64 (≈ 183 µM) | 
CCCN(CCC)C(=O)C[N+](C)(C)CCCCOc1cc(C)ccc1C(C)C.[Br-] | 32 | 64 | > 128 | 128 | 8 | 16 | 
Cc1ccc(C(C)C)c(OCCCC[N+](C)(C)CC(=O)N(CC(C)C)CC(C)C)c1.[Br-] | 8 | 16 | > 128 | 64 | 4 | 4 | 
CCCCCNC(=O)C[N+](C)(C)CCCCOc1cc(C)ccc1C(C)C.[Br-] | 16 | 32 | > 128 | 32 | 8 | 8 | 
CCCCNC(=O)C[N+](C)(C)CCCCOc1cc(C(C)C)ccc1C.[Br-] | 32 | 64 | > 128 | 64 | 16 | 64 | 
Cc1ccc(C(C)C)c(OCCCCC[N+](C)(C)CC(=O)N2CCOCC2)c1.[Br-] | 128 | > 128 | > 128 | > 128 | 128 | > 128 | 
CCCCN(CCCC)C(=O)C[N+](C)(C)CCCCCOc1cc(C)ccc1C(C)C.[Br-] | 4 | 8 | 128 | 32 | 2 | 2 | 
Cc1ccc(C(C)C)cc1OCCC[N+](C)(C)CC(=O)N(C(C)C)C(C)C.[Br-] | 32 | 32 | > 128 | 128 | 16 | 64 | 
CCCN(CCC)C(=O)C[N+](C)(C)CCCCCOc1cc(C(C)C)ccc1C.[Br-] | 8 | 16 | > 128 | 64 | 8 | 16 | 
Cc1ccc(C(C)C)cc1OCCCC[N+](C)(C)CC(=O)N(C(C)C)C(C)C.[Br-] | 16 | 32 | > 128 | 128 | 8 | 16 | 
CCCCCCNC(=O)C[N+](C)(C)CCCCCOc1cc(C(C)C)ccc1C.[Br-] | 2 | 8 | 16 | 8 | 2 | 2 | 
CCCCN(CCCC)C(=O)C[N+](C)(C)CCCCCOc1cc(C(C)C)ccc1C.[Br-] | 2 | 32 | 32 | 16 | 1 | 2 | 
CCCCCCNC(=O)C[N+](C)(C)CCCOc1cc(C(C)C)ccc1C.[Br-] | 4 | 8 | 32 | 16 | 4 | 8 | 
CCCCN(CCCC)C(=O)C[N+](C)(C)CCCOc1cc(C)ccc1C(C)C.[Br-] | 16 | 32 | > 128 | 128 | 8 | 8 | 
